Literature values as cited in US8846671B2, “Heterocyclic alkynyl benzene compounds and medical compositions and uses thereof” (Guangzhou Institute of Biomedicine and Health, Chinese …, priority 2010, dated 2014).
Entries after “also recorded” stand apart in the source; their conditions may differ. Structures can show the parent of a compound that is named as a salt.

Legend:
[1] = system: cells carrying c-KIT D816V; conditions: cited from earlier work
BCR-ABL T315I mutant = conditions: cited from earlier work

Structure (SMILES) | effect on cells with c-KIT D816V point mutation [1] | effect on BCR-ABL T315I mutant (BCR-ABL T315I mutant)
Cc1ccc(NC(=O)c2ccc(CN3CCN(C)CC3)cc2)cc1Nc1nccc(-c2cccnc2)n1 [STI571, Imatinib mesylate] | cannot inhibit proliferation; also recorded: no effect | 
Cc1cn(-c2cc(NC(=O)c3ccc(C)c(Nc4nccc(-c5cccnc5)n4)c3)cc(C(F)(F)F)c2)cn1 [AMN107, Nilotinib] | no effect | neither AMN107 nor BMS-354825 have effect
